This is an account of results in ChEMBL document CHEMBL3351681, “Dual-stage triterpenoids from an African medicinal plant targeting the malaria parasite” (Bioorg Med Chem, 2014).

The subject of series [1] is Plasmodium berghei. Nature of the series: Antiplasmodial activity against GFP-expressing liver stage Plasmodium berghei sporozoites infected in human Huh7 cells preincubated for 1 hr before infection at 1 uM measured after 48 hrs post infection by firefly luciferase reporter gene assay. The series is classed as functional. Conditions: Huh-7. On the technique in general: Reporter assays use an easily measured gene product as a stand-in for the process of interest.

Series [2] deals with Plasmodium berghei. Put plainly: Antiplasmodial activity against GFP-expressing liver stage Plasmodium berghei sporozoites infected in human Huh7 cells preincubated for 1 hr before infection at 5 uM measured after 48 hrs post infection by firefly luciferase reporter gene assay. In kind it is functional. The settings on record: Huh-7.
Series [3] deals with Plasmodium berghei. Put plainly: Antiplasmodial activity against GFP-expressing liver stage Plasmodium berghei sporozoites infected in human Huh7 cells preincubated for 1 hr before infection at 15 uM measured after 48 hrs post infection by firefly luciferase reporter gene assay. Conditions: Huh-7. In kind it is functional.
Series [4] in a line: Cytotoxicity against human HuH7 cells up to 15 uM after 48 hrs by Alamar Blue assay. The series is classed as cell-based. The settings on record: huh-7, 48 h. (In general: The colour change of resazurin is a common sign of viable cells or microbes.)
For series [5], the system named is Plasmodium berghei. Nature of the series: Antiplasmodial activity against GFP-expressing liver stage Plasmodium berghei sporozoites infected in human Huh7 cells preincubated for 1 hr before infection measured after 48 hrs post infection by firefly luciferase reporter gene assay. Conditions: Huh-7. The series is classed as functional, organism-based.

Calls of active or inactive are those of the source. No cut-off for these calls is given here.

For orientation: inhibition means the relative decrease from the control value, in per cent. For `CC(=O)O[C@H]1C=C2[C@@H](CC[C@H](OC(C)=O)C2(C)C)[C@]2(C)CC[C@]3(C)[C@@H]([C@H](C)C[C@H](C=C(C)C)OC(C)=O)CC[C@@]3(C)[C@H]12` [TRIACETYLBALSAMINOL F], the inhibition result in the series on Plasmodium berghei [1], in the series with Plasmodium berghei [2] and in the series with Plasmodium berghei [3] was “Active” each time. In series [4], the Activity entry was “Non-toxic”.
In the series on Plasmodium berghei [1], `CO[C@H]1C=C2[C@@H](CC[C@H](O)C2(C)C)[C@]2(C)CC[C@]3(C)[C@@H]([C@H](C)C[C@H](C=C(C)C)OC(C)=O)CC[C@@]3(C)[C@H]12` [KARAVOATE A] displayed an inhibition at 1 µM of 28%. The compound further showed an inhibition at 5 µM in the series on Plasmodium berghei [2] of 93%. Further, in series [4], the Activity entry is recorded as “Toxic”.
On to `CO[C@H]1C=C2[C@@H](CC[C@H](OC(C)=O)C2(C)C)[C@]2(C)CC[C@]3(C)[C@@H]([C@H](C)C[C@H](C=C(C)C)OC(C)=O)CC[C@@]3(C)[C@H]12` [KARAVOATE B], for which, in the series with Plasmodium berghei [1], the inhibition at 1 µM is 60%. In the series with Plasmodium berghei [2], the inhibition at 5 µM is 96%. Also, the inhibition at 15 µM with Plasmodium berghei [3] stood at 99%. Further, the inhibition entry in the series with Plasmodium berghei [5] is “Dose-dependent effect”. Besides, the Activity result in series [4] is given as “Non-toxic”.
Take `CCCC(=O)O[C@@H](C=C(C)C)C[C@@H](C)[C@H]1CC[C@@]2(C)[C@@H]3[C@@H](OC)C=C4[C@@H](CC[C@H](O)C4(C)C)[C@]3(C)CC[C@]12C` [KARAVOATE E]: in the series on Plasmodium berghei [1], the inhibition at 1 µM was 39%. The same compound yielded an inhibition at 5 µM in the series on Plasmodium berghei [2] of 89%. The same compound had an inhibition at 15 µM in the series with Plasmodium berghei [3] of 99%. The Activity entry in series [4] is “Toxic”.
The compound `CO[C@H]1C=C2[C@@H](CC[C@H](O)[C@]2(C)CO)[C@]2(C)CC[C@]3(C)[C@@H]([C@H](C)C[C@@H](O)C=C(C)C)CC[C@@]3(C)[C@H]12` [BALSAMINOL B] showed an inhibition at 5 µM in the series on Plasmodium berghei [2] of 47%. Also, in series [4], the Activity entry was “Non-toxic”.
In the series on Plasmodium berghei [1], `CO[C@H]1C=C2[C@@H](CC[C@H](O)C2(C)C)[C@]2(C)CC[C@]3(C)[C@@H]([C@H](C)C[C@@H](O)C=C(C)C)CC[C@@]3(C)[C@H]12` [KARAVELAGENIN C] gave an inhibition at 1 µM of 27%. The compound further showed an inhibition at 5 µM with Plasmodium berghei [2] of 73%. The inhibition at 15 µM with Plasmodium berghei [3] was 99%. For the same compound, the Activity entry in series [4] is recorded as “Non-toxic”.
The compound `CCC(=O)O[C@@H](C=C(C)C)C[C@@H](C)[C@H]1CC[C@@]2(C)[C@@H]3[C@@H](OC)C=C4[C@@H](CC[C@H](O)C4(C)C)[C@]3(C)CC[C@]12C` [KARAVOATE C] showed an inhibition at 1 µM in the series with Plasmodium berghei [1] of 13%. Besides, 5 µM produced 60% inhibition with Plasmodium berghei [2]. Moreover, the Activity result in series [4] is recorded as “Non-toxic”.
For `COc1ccc(C(=O)O[C@@H](C=C(C)C)C[C@@H](C)[C@H]2CC[C@@]3(C)[C@@H]4[C@@H](OC)C=C5[C@@H](CC[C@H](O)C5(C)C)[C@]4(C)CC[C@]23C)cc1` [KARAVOATE M], in the series with Plasmodium berghei [1], testing at 1 µM gave an inhibition of 14%. For the same compound, the inhibition at 5 µM in the series on Plasmodium berghei [2] came to 87%. In the series with Plasmodium berghei [3], this compound registered an inhibition at 15 µM of 99%. In addition, the Activity entry in series [4] is “Non-toxic”.
For `CCC(=O)O[C@H]1CC[C@@H]2C(=C[C@H](OC)[C@@H]3[C@@]2(C)CC[C@]2(C)[C@@H]([C@H](C)C[C@H](C=C(C)C)OC(=O)CC)CC[C@@]32C)C1(C)C` [KARAVOATE D] the same measures were 34%, 82%, 93% and “Non-toxic”.
For the compound `CC(C)=C[C@H](O)C[C@@H](C)[C@H]1CC[C@@]2(C)[C@@H]3[C@@H](O)C=C4[C@@H](CC[C@H](O)C4(C)C)[C@]3(C)CC[C@]12C` [BALSAMINOL F], the inhibition entry in the series with Plasmodium berghei [1] and with Plasmodium berghei [3] was “Active” in each case. In addition, in the series with Plasmodium berghei [2], the inhibition at 5 µM was determined as 32%. Further, the Activity entry in series [4] is “Non-toxic”.
`CCCC(=O)O[C@H]1CC[C@@H]2C(=C[C@H](OC)[C@@H]3[C@@]2(C)CC[C@]2(C)[C@@H]([C@H](C)C[C@H](C=C(C)C)OC(=O)CCC)CC[C@@]32C)C1(C)C` [KARAVOATE F] showed an inhibition at 1 µM in the series with Plasmodium berghei [1] of 11%. This compound gave an inhibition at 5 µM in the series with Plasmodium berghei [2] of 64%. The inhibition at 15 µM in the series with Plasmodium berghei [3] is 82%. In addition, the Activity result in series [4] was “Non-toxic”.
`CO[C@H]1C=C2[C@@H](CC[C@H](OC(=O)c3ccc([N+](=O)[O-])cc3)C2(C)C)[C@]2(C)CC[C@]3(C)[C@@H]([C@H](C)C[C@H](C=C(C)C)OC(=O)c4ccc([N+](=O)[O-])cc4)CC[C@@]3(C)[C@H]12` [KARAVOATE J]: the inhibition result with Plasmodium berghei [1], in the series on Plasmodium berghei [2] and with Plasmodium berghei [3] was “inactive” throughout. Besides, the Activity result in series [4] is listed as “Non-toxic”.
Regarding `CO[C@H]1C=C2[C@@H](CC[C@H](OC(=O)c3ccccc3)C2(C)C)[C@]2(C)CC[C@]3(C)[C@@H]([C@H](C)C[C@H](C=C(C)C)OC(=O)c4ccccc4)CC[C@@]3(C)[C@H]12` [KARAVOATE H], the inhibition entry in the series with Plasmodium berghei [1], in the series on Plasmodium berghei [2] and with Plasmodium berghei [3] was “inactive” each time. Besides, in series [4], the Activity result is reported as “Non-toxic”.
As to `COC(C)(C)/C=C/C[C@@H](C)[C@H]1CC[C@@]2(C)[C@@H]3[C@@H](O[C@H]4O[C@@H](CO)[C@H](O)[C@H](O)[C@@H]4O)C=C4[C@@H](CC[C@H](O)C4(C)C)[C@]3(C)CC[C@]12C` [BALSAMINOSIDE A], in series [4], the Activity result is “Toxic”.
In the series with Plasmodium berghei [1], `CO[C@H]1C=C2[C@@H](CC[C@H](O)C2(C)C)[C@]2(C)CC[C@]3(C)[C@@H]([C@H](C)C[C@H](C=C(C)C)OC(=O)c4ccc([N+](=O)[O-])cc4)CC[C@@]3(C)[C@H]12` [KARAVOATE I] gave an inhibition at 1 µM of 34%. This compound also gave an inhibition at 5 µM in the series with Plasmodium berghei [2] of 88%. In the series on Plasmodium berghei [3], this compound showed an inhibition at 15 µM of 97%. For the same compound, the Activity entry in series [4] is “Non-toxic”.
As for `COc1ccc(C(=O)O[C@H]2CC[C@@H]3C(=C[C@H](OC)[C@@H]4[C@@]3(C)CC[C@]3(C)[C@@H]([C@H](C)C[C@H](C=C(C)C)OC(=O)c5ccc(OC)cc5)CC[C@@]43C)C2(C)C)cc1` [KARAVOATE N], the inhibition result in the series on Plasmodium berghei [1], with Plasmodium berghei [2] and with Plasmodium berghei [3] was “inactive” in each case. In series [4], the Activity entry is listed as “Non-toxic”.
